Experimental data published in patent publication US20190099401A1, “METHOD FOR PROTECTING CORNEAL ENDOTHELIAL CELLS FROM THE IMPACT CAUSED BY AN EYE SURGERY” (priority 2017, published 2019).
Values joined by “and” are separate entries in the source; they are usually repeats but may differ in a detail not shown here. Identical values can stand only once.

Experiments:
ARPE19 cells = assay: Oxidative stress test (cellular ROS detection assay kit); format: cell-based; conditions: after 5 days of culturing, FIG. 3
Description: (§1) The oxidative stress of ARPE19 and B4G12 cells were tested using cellular ROS detection assay kit (Deep Red Fluorescence, ab186029) after 5 days of culturing. The tested groups were the same as the abovementioned control group 1, control group 2, comparative group, and treatment group. The test results were shown in FIG. 3, wherein the red fluorescent light represented the existence of oxidative stress.

B4G12 cells = assay: as above; format: cell-based; conditions: after 5 days of culturing, FIG. 3
Description: as §1

[1] = system: corneal endothelial cells; assay: Phacoemulsification in patients with low corneal endothelial cell density; format: in vivo; conditions: 28 days four times a day before phacoemulsification, one patient eye
Excerpt: Please refer to the following Table. 1 showing the age and sex of the patients, concentration of ascorbic acid in the ophthalmic composition, cause of low corneal endothelial cell density (ECD), total energy of phacoemulsification, duration time of phacoemulsification, corneal endothelial cell density before and after the phacoemulsification, and the percentage of cell loss. […] The ratio of cell loss after may be down regulated to 6.2±1.9%.

[2] = system: corneal endothelial cell line (B4G12); assay: Cell experiment: paraquat-induced apoptosis, cell morphology; format: cell-based; conditions: for cell morphology (apoptosis, vesicle formation) / cell morphology (protective effect): FIG. 1
Description: (§2) In the present embodiment, retinal pigment epithelial cell line (ARPE19) and corneal endothelial cell line (B4G12) were subjected to the cell experiment. The B4G12 cells were cultured with the cell culture medium comprising Human Endothelial-SFM, 2% of fetal bovine serum (FBS), and 10 ng/ml of basic fibroblast growth factor (bFGF). The culture medium was changed every two days. The ARPE 19 cells were cultured with the cell culture medium comprising Dulbecco's Modified Eagle Medium Nutrient Mixture F-12 (DMEM-F12), 10% of FBS, 0.5% of ampicillin, and 0.125% of gentamycin. The culture medium was changed every two days.
(§3) 2 mM of paraquat was added to the culture medium of the ARPE19 cells, and 0.2 mM of paraquat was added to the culture medium of the B4G12 cells to induce apoptosis of the cells. 0.1, 0.5, 1.0, and 2.0 mM of ascorbic acid were then added respectively to the culture medium of the cells for 5 days and the cell morphologies thereof were shown in FIG. 1. […] Accordingly, the lowest effective concentration of ascorbic acid is 1.0 mM.
(§4) Further, ARPE19 cells and B4G12 cells were divided respectively into four groups, which comprises a control group 1 without added ascorbic acid or paraquat; a control group 2 added with ascorbic acid but without paraquat; a comparative group added with paraquat but without ascorbic acid; and a treatment group added with ascorbic acid and paraquat, wherein 1 mM of ascorbic acid were added to the control groups 2 and treatment groups, 2 mM of paraquat were added to the comparative group and the treatment group of ARPE19 cells, and 0.2 mM of paraquat were added to the comparative group and the treatment group of B4G12 cells.

[3] = system: retinal pigment epithelial cell line (ARPE19); assay: as above; format: cell-based; conditions: for cell morphology (apoptosis, vesicle formation) / cell morphology (protective effect): FIG. 1
Description: as §2, §3, §4

[4] = 1 mM ascorbic acid without paraquat
[5] = control group 2: 1 mM ascorbic acid without paraquat, FIG. 2

Q: How did the “oxidative stress (red fluorescence, ROS)” value (ARPE19 cells; 1 mM ascorbic acid + 2 mM paraquat) turn out when O=C1O[C@H]([C@@H](O)CO)C(O)=C1O [ascorbic acid] was run?
A: sufficiently decrease the oxidative stress caused by paraquat

Q: What about the “oxidative stress (red fluorescence, ROS)” value (ARPE19 cells; [4]) of the same molecule?
A: did not increase significantly

Q: What about the “oxidative stress (red fluorescence, ROS)” value (B4G12 cells; 1 mM ascorbic acid + 0.2 mM paraquat) of the same molecule?
A: sufficiently decrease the oxidative stress caused by paraquat

Q: What about the “oxidative stress (red fluorescence, ROS)” value (B4G12 cells; [4]) of the same molecule?
A: did not increase significantly

Q: What about the Cell lost ([1]; 20 mg/cc ascorbic acid) of the same molecule?
A: 5.6% and 9.3%

Q: What about the “Post-op corneal ECD” value ([1]; 20 mg/cc ascorbic acid) of the same molecule?
A: 981 cells/mm^2 and 1239 cells/mm^2

Q: And the Cell lost ([1]; 50 mg/cc ascorbic acid)?
A: 3.6% and 5.3% and 8.6% and 8.0% and 7.6% and 6.2% and 5.5% (2×) and 6.9% and 5.1%

Q: What about the “Post-op corneal ECD” value ([1]; 50 mg/cc ascorbic acid) of the same molecule?
A: 1355 cells/mm^2 and 983 cells/mm^2 and 1238 cells/mm^2 and 1119 cells/mm^2 and 1249 cells/mm^2 and 1181 cells/mm^2 and 1724 cells/mm^2 and 1112 cells/mm^2 and 1649 cells/mm^2 and 838 cells/mm^2

Q: What about the “cell morphology (apoptosis, vesicle formation)” value ([2]; 0.1 mM ascorbic acid, 0.2 mM paraquat, 5 days) of the same molecule?
A: showed cell apoptosis and vesicle formation

Q: And the lowest effective concentration ([2]; 0.2 mM paraquat, 5 days)?
A: 1.0 mM

Q: And the “cell morphology (apoptosis, vesicle formation)” value ([2]; 0.5 mM ascorbic acid, 0.2 mM paraquat, 5 days)?
A: showed cell apoptosis and vesicle formation

Q: And the “cell morphology (protective effect)” value ([2]; 1.0 mM ascorbic acid, 0.2 mM paraquat, 5 days)?
A: showed the protective effect for the cells

Q: And the “cell morphology (protective effect)” value ([2]; 2.0 mM ascorbic acid, 0.2 mM paraquat, 5 days)?
A: showed the protective effect for the cells

Q: And the cell vesicles ([2]; control group 2: 1 mM ascorbic acid without paraquat (same in control group 1), FIG. 2)?
A: only some cell vesicles were generated

Q: What about the cell apoptosis [2, 5] of the same molecule?
A: did not show significant cell apoptosis

Q: And the “cell apoptosis and cell vesicle generation” value ([2]; treatment group: 1 mM ascorbic acid + 0.2 mM paraquat, FIG. 2)?
A: cell apoptosis and cell vesicle generation were not significant

Q: What about the “cell morphology (apoptosis, vesicle formation)” value ([3]; 0.1 mM ascorbic acid, 2 mM paraquat, 5 days) of the same molecule?
A: showed cell apoptosis and vesicle formation

Q: And the “cell morphology (apoptosis, vesicle formation)” value ([3]; 0.5 mM ascorbic acid, 2 mM paraquat, 5 days)?
A: showed cell apoptosis and vesicle formation

Q: What about the “cell morphology (protective effect)” value ([3]; 1.0 mM ascorbic acid, 2 mM paraquat, 5 days) of the same molecule?
A: showed the protective effect for the cells

Q: And the “cell morphology (protective effect)” value ([3]; 2.0 mM ascorbic acid, 2 mM paraquat, 5 days)?
A: showed the protective effect for the cells

Q: And the lowest effective concentration ([3]; 2 mM paraquat, 5 days)?
A: 1.0 mM

Q: What about the cell apoptosis [3, 5] of the same molecule?
A: did not show significant cell apoptosis

Q: What about the “cell apoptosis and cell vesicle generation” value ([3]; treatment group: 1 mM ascorbic acid + 2 mM paraquat, FIG. 2) of the same molecule?
A: cell apoptosis and cell vesicle generation were not significant
